Among the data in patent publication US20230066011A1, “PYRROLOPYRIMIDINE DERIVATIVE, AND PHARMACEUTICAL COMPOSITION FOR PREVENTING OR TREATING PROTEIN KINASE-RELATED DISEASE COMPRISING SAME AS ACTIVE INGREDIENT” (VORONOI CO., LTD., priority 2019, published 2023) are IC50 values, retold here.

One assay concerns the target T1, human GST-DYRK1A (Homo sapiens, UniProt Q13627).
T1 construct: purified human GST-DYRK1A (full length, Thermo Scientifics) enzyme; purchased Thermo Scientifics
Put plainly: GST-DYRK1A enzyme inhibition, ADP-Glo kinase assay. Particulars: ATP 10 μM, GST-DYRK1A full length, read-out: DYRK1 IC50. Format: biochemical. The gist of the method: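 Full-length enzyme (10 ng) was incubated with 10 μM ATP and a specific substrate for 1 h at 25 °C in 40 mM Tris-HCl pH 7.4, 20 mM MgCl2, 0.5 mg/mL BSA, 50 μM DTT. Luminescence was read against a solvent control, and IC50 values were derived from 3 data sets.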
A general note: ADP-Glo first removes unused ATP, then detects ADP through luciferase.

A further assay deals with T2, human GST-CLK1 (Homo sapiens, UniProt P49759).
T2 construct: purified human GST-CLK1 (129-end, SignalChem) enzyme; purchased SignalChem
Kind of assay: GST-CLK1 enzyme inhibition, ADP-Glo kinase assay. Format: biochemical. The following applies: ATP 10 μM, GST-CLK1 129-end. Put shortly: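 ADP-Glo luminescence read-out, relative to untreated solvent control, gave IC50 (nM) from triplicate data sets. Reactions ran an hour at 25° C with 3 ng GST-CLK1 (residues 129-end), 10 μM ATP and specific substrate in Tris-HCl pH 7.4 buffer with MgCl2, BSA and DTT.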

T2 sequence (P49759 129-484 limits assumed): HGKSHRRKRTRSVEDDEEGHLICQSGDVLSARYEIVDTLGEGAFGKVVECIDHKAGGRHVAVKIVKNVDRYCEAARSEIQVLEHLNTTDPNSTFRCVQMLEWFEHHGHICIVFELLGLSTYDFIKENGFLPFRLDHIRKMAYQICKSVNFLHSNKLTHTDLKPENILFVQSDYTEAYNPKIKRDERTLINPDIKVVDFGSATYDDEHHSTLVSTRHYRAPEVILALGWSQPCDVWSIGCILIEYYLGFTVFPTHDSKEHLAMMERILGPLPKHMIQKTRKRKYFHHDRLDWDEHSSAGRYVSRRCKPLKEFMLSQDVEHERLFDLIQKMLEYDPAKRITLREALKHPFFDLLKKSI

`COCCNc1nc(Nc2ccc(P3(=O)CCN(C4COC4)CC3)cc2OC)nc2[nH]cc(C#N)c12` [Example 312, 2-((2-methoxy-4-(1-(oxetan-3-yl)-4-oxido-1,4-azaphosphinan-4-yl)phenyl)amino)-4-((2-methoxyethyl)amino)-7H-pyrrolo[2,3-d]pyrimidine-5-carbonitrile]: the IC50 (commonly the concentration that inhibits the measured activity by half) on human GST-DYRK1A is 101 to 300 nM; against human GST-CLK1, below 100 nM.
For `N#Cc1c[nH]c2nc(Nc3ccc(C(=O)N4CCN(C5COC5)CC4)c4c3OCCO4)nc(NCC3CC3)c12` [Example 317, 4-((cyclo-propylmeth-yl)amino)-2-((8-(4-(oxetan-3-yl)piperazine-1-carbonyl)-2,3-dihydrobenzo[b] [1,4]dioxin-5-yl)amino)-7H-pyrrolo[2,3-d]pyrimidine-5-carbonitrile], the concentration for half-maximal inhibition (IC50) is 301 to 1000 nM on human GST-DYRK1A and below 100 nM against human GST-CLK1.
For the molecule `N#Cc1c[nH]c2nc(Nc3ccc(C(=O)N4CCN(C5COC5)CC4)c4c3OCCO4)nc(NCC3CCC3)c12` [Example 318, 4-((cyclo-butylmethyl)amino)-2-((8-(4-(oxetan-3-yl)piperazine-1-carbonyl)-2,3-dihydrobenzo[b] [1,4]dioxin-5-yl)amino)-7H-pyrrolo[2,3-d]pyrimidine-5-carbonitrile], the concentration for half-maximal inhibition (IC50) at human GST-DYRK1A lay in the range of 301 to 1000 nM; against human GST-CLK1, 101 to 300 nM.
On to `COc1cc(P2(=O)CCN(C3CC3)CC2)ccc1Nc1nc(NC2CCCCC2)c2c(C#N)c[nH]c2n1` [Example 323, 4-(cyclo-hexylamino)-2-((4-(1-cyclopropyl-4-oxido-1,4-azaphosphinan-4-yl)-2-methoxyphenyl)a-mino)-7H-pyrrolo[2,3-d]pyrimidine-5-carbonitrile], for which the IC50 fell in the range of 101 to 300 nM at human GST-DYRK1A and 301 to 1000 nM against human GST-CLK1.
Take `COc1cc(P2(=O)CCN(C3CCOCC3)CC2)ccc1Nc1nc(NC2CCCCC2)c2c(C#N)c[nH]c2n1` [Example 324, 4-(cyclo-hexylamino)-2-((2-methoxy-4-(4-oxido-1-(tetrahydro-2H-pyran-4-yl)-1,4-azaphosphinan-4-yl)phenyl)amino)-7H-pyrrolo[2,3-d]pyrimidine-5-carbonitrile]: the IC50 was 301 to 1000 nM at human GST-DYRK1A and below 100 nM against human GST-CLK1.
For the molecule `CCCNc1nc(Nc2ccc(C(=O)N3CC(CO)(CO)C3)c3c2OCCO3)nc2[nH]cc(C#N)c12` [Example 327, 2-((8-(3,3-bis(hydroxy-methyl)azetidine-1-carbonyl)-2,3-dihydrobenzo[b] [1,4]dioxin-5-yl)amino)-4-(propylamino)-7H-pyrrolo[2,3-d]pyrimidine-5-carbonitrile], the figures for the 50% inhibitory concentration (IC50) at human GST-DYRK1A and against human GST-CLK1 were 301 to 1000 nM and below 100 nM, respectively.
As for `CC(C)CNc1nc(Nc2ccc(C(=O)N3CC(CO)(CO)C3)c3c2OCCO3)nc2[nH]cc(C#N)c12` [Example 328, 2-((8-(3,3-bis (hydroxymethyl)azetidine-1-carbonyl)-2,3-dihydrobenzo[b] [1,4]dioxin-5-yl)amino)-4-(isobutylamino)-7H-pyrrolo[2,3-d]pyrimidine-5-carbonitrile], the IC50 on human GST-DYRK1A was 301 to 1000 nM; against human GST-CLK1 it was below 100 nM.
On to `CC(C)Nc1nc(Nc2ccc(C(=O)N3CC(CO)(CO)C3)c3c2OCCO3)nc2[nH]cc(C#N)c12` [Example 329, 2-((8-(3,3-bis (hydroxymethyl)azetidine-1-carbonyl)-2,3-dihydrobenzo[b] [1,4]dioxin-5-yl)amino)-4-(isopropylamino)-7H-pyrrolo[2,3-d]pyrimidine-5-carbonitrile], for which the figures for the IC50 at human GST-DYRK1A and against human GST-CLK1 were 301 to 1000 nM and below 100 nM, respectively.
Turning to `CC[C@@H](C)Nc1nc(Nc2ccc(C(=O)N3CC(CO)(CO)C3)c3c2OCCO3)nc2[nH]cc(C#N)c12` [Example 330, (R)-2-((8-(3,3-bis(hydroxy-methyl)azetidine-1-carbonyl)-2,3-dihydrobenzo[b] [1,4]dioxin-5-yl)amino)-4-(sec-butylamino)-7H-pyrrolo[2,3-d]pyrimidine-5-carbonitrile], the concentration for half-maximal inhibition (IC50) on human GST-DYRK1A was 301 to 1000 nM; at human GST-CLK1 it was below 100 nM.
The like results for `CC[C@H](C)Nc1nc(Nc2ccc(C(=O)N3CC(CO)(CO)C3)c3c2OCCO3)nc2[nH]cc(C#N)c12` [Example 331, (S)-2-((8-(3,3-bis(hydroxy-methyl)azetidine-1-carbonyl)-2,3-dihydrobenzo[b] [1,4]dioxin-5-yl)amino)-4-(sec-butylamino)-7H-pyrrolo[2,3-d]pyrimidine-5-carbonitrile] were, in that order, 301 to 1000 nM and below 100 nM.
As for `N#Cc1c[nH]c2nc(Nc3ccc(C(=O)N4CC(CO)(CO)C4)c4c3OCCO4)nc(NC3CCC3)c12` [Example 333, 2-((8-(3,3-bis (hydroxymethyl)azetidine-1-carbonyl)-2,3-dihydrobenzo[b] [1,4]dioxin-5-yl)amino)-4-(cyclobutyl-amino)-7H-pyrrolo[2,3-d]pyrimidine-5-carbonitrile], the half-inhibitory concentration (IC50) on human GST-DYRK1A is 301 to 1000 nM; at human GST-CLK1, below 100 nM.
For the molecule `N#Cc1c[nH]c2nc(Nc3ccc(C(=O)N4CC(CO)(CO)C4)c4c3OCCO4)nc(NC3CCCC3)c12` [Example 334, 2-((8-(3,3-bis (hydroxymethyl)azetidine-1-carbonyl)-2,3-dihydrobenzo[b] [1,4]dioxin-5-yl)amino)-4-(cyclopentyl-amino)-7H-pyrrolo[2,3-d]pyrimidine-5-carbonitrile], the IC50 at human GST-DYRK1A is 301 to 1000 nM; against human GST-CLK1, below 100 nM.
Consider `N#Cc1c[nH]c2nc(Nc3ccc(C(=O)N4CC(CO)(CO)C4)c4c3OCCO4)nc(N[C@@H]3CCOC3)c12` [Example 335, (R)-2-((8-(3,3-bis(hydroxy-methyl)azetidine-1-carbonyl)-2,3-dihydrobenzo[b] [1,4]dioxin-5-yl)amino)-4-((tetrahydrofuran-3-yl)amino)-7H-pyrrolo[2,3-d]pyrimidine-5-carbonitrile], for which the half-maximal inhibitory concentration (IC50) is 101 to 300 nM at human GST-DYRK1A and below 100 nM against human GST-CLK1.
Take `N#Cc1c[nH]c2nc(Nc3ccc(C(=O)N4CC(CO)(CO)C4)c4c3OCCO4)nc(N[C@H]3CCOC3)c12` [Example 336, (S)-2-((8-(3,3-bis (hydroxymethyl)azetidine-1-carbonyl)-2,3-dihydrobenzo[b] [1,4]dioxin-5-yl)amino)-4-((tetrahydrofuran-3-yl)amino)-7H-pyrrolo[2,3-d]pyrimidine-5-carbonitrile]: the half-inhibitory concentration (IC50) on human GST-DYRK1A is 301 to 1000 nM; on human GST-CLK1, below 100 nM.
The like results for `N#Cc1c[nH]c2nc(Nc3ccc(C(=O)N4CC(CO)(CO)C4)c4c3OCCO4)nc(NC3CCOCC3)c12` [Example 337, 2-((8-(3,3-bis (hydroxymethyl)azetidine-1-carbonyl)-2,3-dihydrobenzo[b] [1,4]dioxin-5-yl)amino)-4-((tetrahydro-2H-pyran-4-yl)amino)-7H-pyrrolo[2,3-d]pyrimidine-5-carbonitrile] were, in that order, 301 to 1000 nM and below 100 nM.
As for `N#Cc1c[nH]c2nc(Nc3ccc(C(=O)N4CC(CO)(CO)C4)c4c3OCCO4)nc(NCC3CC3)c12` [Example 338, 2-((8-(3,3-bis (hydroxymethyl)azetidine-1-carbonyl)-2,3-dihydrobenzo [b][1,4]dioxin-5-yl)amino)-4-((cyclopropyl-meth-yl)amino)-7H-pyrrolo[2,3-d]pyrimidine-5-carbonitrile], the IC50 on human GST-DYRK1A was 101 to 300 nM; at human GST-CLK1 it was below 100 nM.
The like results for `N#Cc1c[nH]c2nc(Nc3ccc(C(=O)N4CC(CO)(CO)C4)c4c3OCCO4)nc(NCC3CCC3)c12` [Example 339, 2-((8-(3,3-bis (hydroxymethyl)azetidine-1-carbonyl)-2,3-dihydrobenzo [b][1,4]dioxin-5-yl)amino)-4-((cyclobutyl-methyl)amino)-7H-pyrrolo[2,3-d]pyrimidine-5-carbonitrile] were, in that order, 301 to 1000 nM and below 100 nM.
Take `N#Cc1c[nH]c2nc(Nc3ccc(C(=O)N4CC(CO)(CO)C4)c4c3OCCO4)nc(NCC3CCCC3)c12` [Example 340, 2-((8-(3,3-bis (hydroxymethyl)azetidine-1-carbonyl)-2,3-dihydrobenzo [b][1,4]dioxin-5-yl)amino)-4-((cyclopentyl-methyl)amino)-7H-pyrrolo[2,3-d]pyrimidine-5-carbonitrile]: the IC50 is 301 to 1000 nM at human GST-DYRK1A and below 100 nM against human GST-CLK1.
For `CCCCNc1nc(Nc2ccc(C(=O)N3CC(CO)(CO)C3)c3c2OCCO3)nc2[nH]cc(C#N)c12` [Example 341, 2-((8-(3,3-bis (hydroxymethyl)azetidine-1-carbonyl)-2,3-dihydrobenzo [b][1,4]dioxin-5-yl)amino)-4-(butylamino)-7H-pyrrolo[2,3-d]pyrimidine-5-carbonitrile], the concentration for half-maximal inhibition (IC50) on human GST-DYRK1A was 301 to 1000 nM; against human GST-CLK1 it was below 100 nM.
On to `N#Cc1c[nH]c2nc(Nc3ccc(C(=O)N4CCOCC4)c4c3OCC4)nc(NCC3CCCC3)c12` [Example 342, 4-((cyclo-pentylmeth-yl)amino)-2-((4-(morpholine-4-carbonyl)-2,3-dihydrobenzo-furan-7-yl)amino)-7H-pyrrolo[2,3-d]pyrimidine-5-carbonitrile], for which the IC50 at human GST-DYRK1A and against human GST-CLK1 was 301 to 1000 nM in each case.
As to `CS(=O)(=O)CCNc1nc(Nc2ccc(C(=O)N3CCOCC3)c3c2OCC3)nc2[nH]cc(C#N)c12` [Example 344, 4-((2-(methyl-sulfonyl)eth-yl)amino)-2-((4-(morpholine-4-carbonyl)-2,3-dihydrobenzo-furan-7-yl)amino)-7H-pyrrolo[2,3-d]pyrimidine-5-carbonitrile], the results for the IC50 at human GST-DYRK1A and against human GST-CLK1 were 301 to 1000 nM and below 100 nM, respectively.
